The source of these data is patent publication US11111238B2, “Coumarin derivatives, processes for their preparation and uses thereof for the treatment of cancer” (Lead Discovery Center GmbH, priority 2017, dated 2021).

For this test, the target named is mitochondrial RNA-polymerase (POLRMT) (Mus musculus, UniProt Q8BKF1). The test is described as follows: Homogeneous TR-FRET assay for mitochondrial transcription activity. It is filed as biochemical. The conditions noted are these: homogeneous TR-FRET assay according to Example 4; activity class. The text has this:
The TR-FRET assay was basically conducted as described in WO2016/193,231A1, especially as described in example 1 (hereby incorporated by reference). With respect to the background of the mitochondrial transcription it is referred to Falkenberg et al. (2002) and Posse et al. (Posse et al., 2015). The method monitors the activity of mitochondrial RNA-polymerase via detection of the formation of its product, a 407 bp long RNA sequence. Detection of the product is facilitated by hybridization of two DNA-oligonucleotide probes to specific and adjacent sequences within the RNA product sequence. Upon annealing of the probes, two fluorophores that are coupled directly to an acceptor nucleotide probe (ATT0647, 5′) or introduced via a coupled streptavidin interacting with a biotinylated donor nucleotide probe on the other side (Europium cryptate, 3′) are brought into sufficient proximity to serve as a fluorescence-donor-acceptor pair as generally described in Walters and Namchuk (2003). Thus, a FRET signal at 665 nm is generated upon excitation at 340 nm.
Briefly, the protocol described here was applied for screening and activity determination in a low-volume 384-well microtiter plate with non-binding surface. For high-throughput application in the 1536-well microtiter plate format, volumes of the reagent mixes were adjusted, maintaining the volumetric ratio. Proteins POLRMT (NM_172551.3), TFAM (NM_009360.4) and TFB2 M (NM_008249.4) were diluted from their stocks to working concentrations of 150 nM, 1.8 μM and 330 nM respectively, in a dilution buffer containing 100 mM Tris-HCl pH 8.0, 200 mM NaCl, 10% (v/v) glycerole, 2 mM glutathione (GSH), 0.5 mM EDTA and 0.1 mg/mL BSA. Protein dilutions and template DNA, comprising a pUC18 plasmid encoding the mitochondrial light strand promoter, restriction linearized proximal to the promoter 3′-end (pUC-LSP), were mixed at the twofold final assay-concentration in a reaction buffer, containing 10 mM Tris-HCl pH 7.5, 10 mM MgCl2, 40 mM NaCl, 2 mM GSH, 0.01% (w/v) Tween-20 and 0.1 mg/mL BSA.
5 μL of this mix were dispensed, depending on the chosen microtiter plate format, using multi-channel pipettes or a Multidrop® dispenser (Thermo Fisher Scientific, Waltham Mass.) into the wells of a microtiter plate and incubated at room temperature (RT) for 10 min. Chemical compounds under scrutiny in the assay were applied using contact-free acoustic droplet-dispensing (Echo520® Labcyte Inc., Sunnyvale Calif.) from 10 mM compound stocks in 100% DMSO, to a final concentration of 10 μM or in serial dilution series of the required concentration range. Equal amounts of DMSO without any compound were added to positive control samples, followed by an incubation step at RT for 10 min.
The enzymatic reaction was started by the addition of 5 μL of a mix of […] in reaction buffer to a final concentration of 500 μM each. No nucleotide mix was added to negative control samples. The content of the wells was mixed using a VarioTeleshaker™ (Thermo Fisher Scientific, Waltham Mass.) at 1,500 rpm for 45 sec after which the microtiter plate was centrifuged at 500×g for 1 min. The samples were incubated for 2 h at RT with humidity control to avoid evaporation. The detection reagents were prepared in a buffer that was composed, such that the enzymatic reaction was terminated due to chelating of Mg-ions and increased ionic strength, containing 50 mM Tris-HCl pH 7.5, 700 mM NaCl, 20 mM EDTA, and 0.01% (w/v) Tween-20. Importantly Eu-cryptate-coupled streptavidin had to be pre-incubated with a 100-fold molar excess of a random sequence oligonucleotide for 10 min at RT in the dark to block unspecific binding of single stranded RNA to the protein. Subsequently, the blocked streptavidin(—Eu) was mixed with the DNA-probes on ice and kept away from light until use. […]
(In general: In TR-FRET formats the signal depends on donor and acceptor labels being close together.)

pIC50: −log10 of the molar value. Some results are limits rather than exact numbers.

mitochondrial RNA-polymerase (POLRMT), sequence (Q8BKF1 42-1207): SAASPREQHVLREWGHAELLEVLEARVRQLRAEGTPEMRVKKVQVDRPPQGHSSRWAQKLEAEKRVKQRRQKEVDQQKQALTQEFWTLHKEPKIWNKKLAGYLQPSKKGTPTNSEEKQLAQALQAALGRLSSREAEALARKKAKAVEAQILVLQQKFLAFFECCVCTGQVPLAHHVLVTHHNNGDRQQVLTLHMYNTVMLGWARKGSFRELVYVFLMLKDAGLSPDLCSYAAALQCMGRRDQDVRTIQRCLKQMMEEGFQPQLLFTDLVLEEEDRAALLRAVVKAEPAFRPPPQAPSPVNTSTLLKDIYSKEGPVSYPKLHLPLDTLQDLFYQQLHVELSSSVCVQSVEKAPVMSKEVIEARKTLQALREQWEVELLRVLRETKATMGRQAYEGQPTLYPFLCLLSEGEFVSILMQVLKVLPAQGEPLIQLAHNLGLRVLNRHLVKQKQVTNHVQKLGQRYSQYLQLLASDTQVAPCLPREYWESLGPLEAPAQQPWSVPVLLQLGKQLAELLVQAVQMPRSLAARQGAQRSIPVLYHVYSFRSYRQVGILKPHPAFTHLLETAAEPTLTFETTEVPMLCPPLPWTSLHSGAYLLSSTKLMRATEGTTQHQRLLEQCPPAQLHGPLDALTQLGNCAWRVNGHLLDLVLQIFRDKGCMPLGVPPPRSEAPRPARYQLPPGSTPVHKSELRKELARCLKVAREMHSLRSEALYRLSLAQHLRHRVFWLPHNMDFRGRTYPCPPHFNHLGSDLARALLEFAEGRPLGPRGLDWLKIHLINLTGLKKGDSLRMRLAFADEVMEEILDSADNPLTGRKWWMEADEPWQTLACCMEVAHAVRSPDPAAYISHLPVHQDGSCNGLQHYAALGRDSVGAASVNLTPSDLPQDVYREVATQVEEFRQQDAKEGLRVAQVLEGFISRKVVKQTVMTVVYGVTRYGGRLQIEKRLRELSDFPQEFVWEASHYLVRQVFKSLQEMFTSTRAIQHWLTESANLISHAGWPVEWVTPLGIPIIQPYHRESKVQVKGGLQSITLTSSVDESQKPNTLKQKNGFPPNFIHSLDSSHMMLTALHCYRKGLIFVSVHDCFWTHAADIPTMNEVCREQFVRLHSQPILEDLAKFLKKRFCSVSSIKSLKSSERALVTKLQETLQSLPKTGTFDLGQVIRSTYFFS

One may read the pIC50 as the negative decadic logarithm of the IC50, by convention in mol/L. `C[C@@H](Oc1ccc2c(-c3ccccc3Cl)cc(=O)oc2c1)C(=O)N1CCCCC1` [Compound 34, 4-(2-chlorophenyl)-7-[(1R)-1-methyl-2-oxo-2-(1-piperidyl)ethoxy]chromen-2-one] gave a negative-log IC50 (pIC50) greater than 7.70.

`COC(=O)CC1CCN(C(=O)C(C)Oc2ccc3c(-c4ccccc4C)cc(=O)oc3c2)CC1` (stereo not shown) [Compound 83, methyl 2-[1-[2-[4-(o-tolyl)-2-oxo-chromen-7-yl]oxypropanoyl]-4-piperidyl]acetate] had a pIC50 of 7.00 to 7.70.

As for `CC(Oc1ccc2c(-c3ccccc3Cl)cc(=O)oc2c1)C(=O)N1CCCC(C#N)C1` (stereo not shown) [Compound 48, 1-[2-[4-(2-chlorophenyl)-2-oxo-chromen-7-yl]oxypropanoyl]piperidine-3-carbonitrile], the pIC50 is greater than 7.70.

With `CC(Oc1ccc2c(-c3ccc(F)cc3Cl)cc(=O)oc2c1)C(=O)O` (stereo not shown) [Compound 99, 2-((4-(2-chloro-4-fluorophenyl)-2-oxo-2H-chromen-7-yl)oxy)propanoic acid], the pIC50 is 6.00 to 7.00.

On to `COC(=O)[C@@H]1CN(C(=O)[C@@H](C)Oc2ccc3c(-c4ccc(F)cc4Cl)cc(=O)oc3c2)CCN1` [Compound 135, methyl (2S)-4-[(2R)-2-[4-(2-chloro-4-fluoro-phenyl)-2-oxo-chromen-7-yl]oxypropanoyl]piperazine-2-carboxylate], for which the pIC50 is 6.00 to 7.00.

As to `CCOC(=O)C(C)Oc1ccc2c(-c3ccc(F)cc3Cl)cc(=O)oc2c1` (stereo not shown) [Compound 82, Ethyl 2-((4-(2-chloro-4-fluorophenyl)-2-oxo-2H-chromen-7-yl)oxy)propanoate], the negative logarithm of the IC50 (pIC50) was 7.00 to 7.70.

The compound `CCOC(=O)[C@H]1CCCN(C(=O)C(CC)Oc2ccc3c(-c4ccccc4Cl)cc(=O)oc3c2)C1` (stereo partly drawn) [Compound 109, ethyl (3S)-1-[2-[4-(2-chlorophenyl)-2-oxo-chromen-7-yl]oxybutanoyl]piperidine-3-carboxylate] showed a pIC50 of 7.00 to 7.70.

With `Cc1ccccc1-c1cc(=O)oc2cc(OC(C)C(=O)N3CCCC(CC(=O)O)C3)ccc12` (stereo not shown) [Compound 72, 2-[1-[2-[4-(o-tolyl)-2-oxo-chromen-7-yl]oxypropanoyl]-3-piperidyl]acetic acid], the negative-log IC50 (pIC50) is 7.00 to 7.70.

In turn, `CCOC(=O)C(C)Oc1ccc2c(-c3ccccc3C)cc(=O)oc2c1` (stereo not shown) [Compound 58, ethyl 2-[4-(o-tolyl)-2-oxo-chromen-7-yl]oxypropanoate] gave a negative logarithm of the IC50 (pIC50) of 7.00 to 7.70.

Compound `Cc1ccccc1-c1cc(=O)oc2cc(OC(C)C(=O)Nc3ccc(CCO)cc3)ccc12` (stereo not shown) [Compound 19, N-[4-(2-hydroxyethyl)phenyl]-2-[4-(o-tolyl)-2-oxo-chromen-7-yl]oxy-propanamide] gave a negative logarithm of the IC50 (pIC50) greater than 7.70.

For the compound `CC(C)NC(=O)C(C)Oc1ccc2c(-c3cccc(F)c3Cl)cc(=O)oc2c1` (stereo not shown) [Compound 49, 2-[4-(2-chloro-3-fluoro-phenyl)-2-oxo-chromen-7-yl]oxy-N-isopropyl-propanamide], the pIC50 is greater than 7.70.

The compound `Cc1ccccc1-c1cc(=O)oc2cc(O[C@H](C)C(=O)N3CCCCC3)ccc12` [Compound 30, 7-[(1R)-1-methyl-2-oxo-2-(1-piperidyl)ethoxy]-4-(o-tolyl)chromen-2-one] had a negative logarithm of the IC50 (pIC50) greater than 7.70.

`C[C@@H](Oc1ccc2c(-c3ccccc3Cl)cc(=O)oc2c1)C(=O)N(C)C` [Compound 45, (2R)-2-[4-(2-chlorophenyl)-2-oxo-chromen-7-yl]oxy-N,N-dimethyl-propanamide] had a pIC50 greater than 7.70.

Regarding `CCOC(=O)[C@H]1CCCN(C(=O)C(C)Oc2ccc3c(-c4ccccc4C)cc(=O)oc3c2)C1` (stereo partly drawn) [Compound 17, ethyl (3S)-1-[2-[4-(o-tolyl)-2-oxo-chromen-7-yl]oxypropanoyl]piperidine-3-carboxylate], the pIC50 was greater than 7.70.

In the case of `CC(C)(Oc1ccc2c(-c3ccccc3Cl)cc(=O)oc2c1)C(=O)O` [Compound 112, 2-[4-(2-chlorophenyl)-2-oxo-chromen-7-yl]oxy-2-methyl-propanoic acid], the pIC50 is 6.00 to 7.00.

Take `Cc1ccccc1-c1cc(=O)oc2cc(OC(C)C(=O)O)ccc12` (stereo not shown) [Compound 97, 2-[4-(o-tolyl)-2-oxo-chromen-7-yl]oxypropanoic acid]: the pIC50 was 6.00 to 7.00.

Regarding `CC(C)NC(=O)C(C)Oc1ccc2c(-c3ccc(F)cc3Cl)cc(=O)oc2c1` (stereo not shown) [Compound 65, 2-[4-(2-chloro-4-fluoro-phenyl)-2-oxo-chromen-7-yl]oxy-N-isopropyl-propanamide], the pIC50 was 7.00 to 7.70.

`C[C@@H](Oc1ccc2c(-c3ccc(F)cc3Cl)cc(=O)oc2c1)C(=O)Nc1cccc(C(=O)O)n1` [Compound 151, 6-[[(2R)-2-[4-(2-chloro-4-fluoro-phenyl)-2-oxo-chromen-7-yl]oxypropanoyl]amino]pyridine-2-carboxylic acid] gave a pIC50 greater than 7.70.

As for `Cc1ccccc1-c1cc(=O)oc2cc(OC(C)C(=O)N3CCCC(S(=O)(=O)O)C3)ccc12` (stereo not shown) [Compound 10, 1-[2-[4-(o-tolyl)-2-oxo-chromen-7-yl]oxypropanoyl]piperidine-3-sulfonic acid], the negative-log IC50 (pIC50) is greater than 7.70.

With `CCOC(=O)C1(C)CCCN(C(=O)C(C)Oc2ccc3c(-c4ccccc4C)cc(=O)oc3c2)C1` (stereo not shown) [Compound 88, ethyl 3-methyl-1-[2-[4-(o-tolyl)-2-oxo-chromen-7-yl]oxypropanoyl]piperidine-3-carboxylate], the pIC50 was 7.00 to 7.70.

For the compound `Cc1ccccc1-c1cc(=O)oc2cc(O[C@H](C)C(=O)OC(C)C)ccc12` [Compound 55, (R)-isopropyl 2-((2-oxo-4-(o-tolyl)-2H-chromen-7-yl)oxy)propanoate], the pIC50 was greater than 7.70.

With `CCOC(=O)[C@H]1CCCN(C(=O)C(C)Oc2ccc3c(-c4ccccc4Cl)cc(=O)oc3c2)C1` (stereo partly drawn) [Compound 16, ethyl (3S)-1-[2-[4-(2-chlorophenyl)-2-oxo-chromen-7-yl]oxypropanoyl]piperidine-3-carboxylate], the pIC50 is greater than 7.70.

In turn, `C[C@@H](Oc1ccc2c(-c3ccc(F)cc3Cl)cc(=O)oc2c1)C(=O)N1CCC[C@@H](C(=O)O)C1` [Compound 108, (3R)-1-[(2R)-2-[4-(2-chloro-4-fluoro-phenyl)-2-oxo-chromen-7-yl]oxypropanoyl]piperidine-3-carboxylic acid] showed a pIC50 greater than 7.70.

In the case of `COC(=O)C[C@@H]1CCCN(C(=O)[C@@H](C)Oc2ccc3c(-c4ccccc4Cl)cc(=O)oc3c2)C1` [Compound 100, methyl 2-[(3S)-1-[(2R)-2-[4-(2-chlorophenyl)-2-oxo-chromen-7-yl]oxypropanoyl]-3-piperidyl]acetate], the negative-log IC50 (pIC50) is greater than 7.70.

On to `COC(=O)c1cncc(NC(=O)[C@@H](C)Oc2ccc3c(-c4ccc(F)cc4Cl)cc(=O)oc3c2)c1` [Compound 143, methyl 5-[[(2R)-2-[4-(2-chloro-4-fluoro-phenyl)-2-oxo-chromen-7-yl]oxypropanoyl]amino]pyridine-3-carboxylate], for which the pIC50 is 6.00 to 7.00.

Turning to `CC(Oc1ccc2c(-c3ccccc3Cl)cc(=O)oc2c1)C(=O)N1CCCC(c2nn[nH]n2)C1` (stereo not shown) [Compound 39, 4-(2-chlorophenyl)-7-[1-methyl-2-oxo-2-[3-(2H-tetrazol-5-yl)-1-piperidyl]ethoxy]chromen-2-one], the negative logarithm of the IC50 (pIC50) was greater than 7.70.

Consider `Cc1ccccc1-c1cc(=O)oc2cc(OC(C)C(=O)N3CCCC3)ccc12` (stereo not shown) [Compound 5, 7-(1-methyl-2-oxo-2-pyrrolidin-1-yl-ethoxy)-4-(o-tolyl)chromen-2-one], for which the pIC50 is greater than 7.70.

Turning to `CCOC(=O)C(C)(C)Oc1ccc2c(-c3ccccc3Cl)cc(=O)oc2c1` [Compound 113, ethyl 2-[4-(2-chlorophenyl)-2-oxo-chromen-7-yl]oxy-2-methyl-propanoate], the pIC50 was 6.00 to 7.00.
